Assay results from paper PMC12136037, “Type II kinase inhibitors that target Parkinson’s disease–associated LRRK2” (Science Advances, 2025).
Where two headings read alike, the source gives them in different places.

Legend:
Assay in all cases: DSF 100 kinase selectivity screen;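 note: compound tested at 20 µM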
Assay type in all cases: binding
[1] = molecular target: T1, ~100 representative kinases (Homo sapiens, UniProt Q9UEW8); conditions: Protein STK39; DSF; average of three replicates
T1 construct: Recombinant protein kinase domains with a concentration of 2 μM
Procedure, shortened: (§1)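 Each kinase domain, at 2 μM, is mixed with 20 μM test compound and SYPRO Orange in Hepes (20 mM, pH 7.5) with 500 mM NaCl. Temperature is then raised at 3°C/min and fluorescence-monitored unfolding yields the melting temperature change, ΔTm in degrees Celsius.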

[2] = molecular target: T2, ~100 representative kinases (Homo sapiens, UniProt P16083); conditions: protein NQO2; average of three replicates
T2 construct: Recombinant protein kinase domains with a concentration of 2 μM
T2 sequence (P16083 1-231): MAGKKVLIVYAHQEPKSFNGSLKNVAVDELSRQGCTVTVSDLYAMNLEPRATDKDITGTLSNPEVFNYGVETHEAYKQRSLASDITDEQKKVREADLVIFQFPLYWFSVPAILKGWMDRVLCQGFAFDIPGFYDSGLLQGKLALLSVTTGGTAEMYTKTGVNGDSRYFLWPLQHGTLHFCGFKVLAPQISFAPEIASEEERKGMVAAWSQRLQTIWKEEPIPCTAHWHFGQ
Procedure, shortened: as §1

[3] = molecular target: T3, ~100 representative kinases (Homo sapiens, UniProt Q13627); conditions: Protein DYRK1A; average of three replicates
T3 construct: Recombinant protein kinase domains with a concentration of 2 μM
Procedure, shortened: as §1

[4] = molecular target: T4, ~100 representative kinases (Homo sapiens, UniProt Q96NX5); conditions: Protein CAMK1G; average of three replicates
T4 construct: Recombinant protein kinase domains with a concentration of 2 μM
Procedure, shortened: as §1

[5] = molecular target: T5, ~100 representative kinases (Homo sapiens, UniProt O15264); conditions: protein MAPK13; average of three replicates
T5 construct: Recombinant protein kinase domains with a concentration of 2 μM
T5 sequence (O15264 1-365): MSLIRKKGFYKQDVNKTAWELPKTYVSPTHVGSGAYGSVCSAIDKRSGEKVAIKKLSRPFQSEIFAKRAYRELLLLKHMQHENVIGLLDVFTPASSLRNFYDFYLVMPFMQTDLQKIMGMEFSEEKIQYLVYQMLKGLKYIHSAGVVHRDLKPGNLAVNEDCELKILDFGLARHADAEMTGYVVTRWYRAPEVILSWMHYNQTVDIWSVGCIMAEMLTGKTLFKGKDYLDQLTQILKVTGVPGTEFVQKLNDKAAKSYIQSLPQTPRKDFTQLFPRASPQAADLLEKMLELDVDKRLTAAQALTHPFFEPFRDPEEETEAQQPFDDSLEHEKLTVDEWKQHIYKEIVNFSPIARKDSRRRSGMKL
Procedure, shortened: as §1

[6] = molecular target: T6, ~100 representative kinases (Homo sapiens, UniProt Q00536); conditions: protein PCTK1; average of three replicates
T6 construct: Recombinant protein kinase domains with a concentration of 2 μM
Procedure, shortened: as §1

[7] = molecular target: T7, ~100 representative kinases (Homo sapiens, UniProt P15056)
T7 construct: Recombinant protein kinase domains with a concentration of 2 μM
Procedure, shortened: as §1

[8] = molecular target: T8, ~100 representative kinases (Homo sapiens, UniProt P45985); conditions: protein MAP2K4; average of three replicates
T8 construct: Recombinant protein kinase domains with a concentration of 2 μM
T8 sequence (P45985 1-399): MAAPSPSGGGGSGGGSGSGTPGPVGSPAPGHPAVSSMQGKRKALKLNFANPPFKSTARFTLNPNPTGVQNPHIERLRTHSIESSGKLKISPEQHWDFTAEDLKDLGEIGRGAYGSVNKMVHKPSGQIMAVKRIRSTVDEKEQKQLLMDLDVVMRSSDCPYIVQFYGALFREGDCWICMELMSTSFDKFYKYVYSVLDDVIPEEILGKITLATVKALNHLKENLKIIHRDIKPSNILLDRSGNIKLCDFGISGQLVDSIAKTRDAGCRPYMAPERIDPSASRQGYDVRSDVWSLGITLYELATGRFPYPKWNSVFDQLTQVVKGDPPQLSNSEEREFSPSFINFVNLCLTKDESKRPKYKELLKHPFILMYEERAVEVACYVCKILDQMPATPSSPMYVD
Procedure, shortened: as §1

[9] = molecular target: T9, ~100 representative kinases (Homo sapiens, UniProt P33981); conditions: Protein TTK; DSF; average of three replicates
T9 construct: Recombinant protein kinase domains with a concentration of 2 μM
T9 sequence (P33981 1-857): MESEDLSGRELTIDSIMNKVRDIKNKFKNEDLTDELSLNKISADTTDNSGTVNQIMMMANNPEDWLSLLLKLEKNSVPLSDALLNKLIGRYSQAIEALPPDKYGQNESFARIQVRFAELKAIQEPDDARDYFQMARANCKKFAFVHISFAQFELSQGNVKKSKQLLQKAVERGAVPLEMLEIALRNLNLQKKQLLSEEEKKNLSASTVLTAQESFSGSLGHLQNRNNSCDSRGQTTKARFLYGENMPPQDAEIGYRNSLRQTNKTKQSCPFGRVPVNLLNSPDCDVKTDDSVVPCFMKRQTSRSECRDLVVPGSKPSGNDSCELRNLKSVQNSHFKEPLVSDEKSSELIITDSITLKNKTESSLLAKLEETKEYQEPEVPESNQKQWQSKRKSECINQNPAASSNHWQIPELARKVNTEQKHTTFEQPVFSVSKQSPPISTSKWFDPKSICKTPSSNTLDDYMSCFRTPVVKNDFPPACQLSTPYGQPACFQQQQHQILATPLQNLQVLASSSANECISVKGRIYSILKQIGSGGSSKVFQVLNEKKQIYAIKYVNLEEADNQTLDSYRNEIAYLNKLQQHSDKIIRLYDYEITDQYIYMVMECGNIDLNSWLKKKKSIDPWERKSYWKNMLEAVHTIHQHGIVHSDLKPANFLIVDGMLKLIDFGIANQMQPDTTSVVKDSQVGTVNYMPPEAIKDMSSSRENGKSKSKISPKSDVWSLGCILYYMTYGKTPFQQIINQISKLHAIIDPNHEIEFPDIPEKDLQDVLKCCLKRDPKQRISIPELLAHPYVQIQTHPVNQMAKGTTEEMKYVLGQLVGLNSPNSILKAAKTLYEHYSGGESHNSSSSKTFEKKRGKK
Procedure, shortened: as §1

[10] = molecular target: T10, ~100 representative kinases (Homo sapiens, UniProt Q9UPE1); conditions: Protein SRPK3; DSF; average of three replicates
T10 construct: Recombinant protein kinase domains with a concentration of 2 μM
Procedure, shortened: as §1

[11] = Protein BRAF, average of three replicates

T4 sequence (Q96NX5 whole entry, the tested form may be a part): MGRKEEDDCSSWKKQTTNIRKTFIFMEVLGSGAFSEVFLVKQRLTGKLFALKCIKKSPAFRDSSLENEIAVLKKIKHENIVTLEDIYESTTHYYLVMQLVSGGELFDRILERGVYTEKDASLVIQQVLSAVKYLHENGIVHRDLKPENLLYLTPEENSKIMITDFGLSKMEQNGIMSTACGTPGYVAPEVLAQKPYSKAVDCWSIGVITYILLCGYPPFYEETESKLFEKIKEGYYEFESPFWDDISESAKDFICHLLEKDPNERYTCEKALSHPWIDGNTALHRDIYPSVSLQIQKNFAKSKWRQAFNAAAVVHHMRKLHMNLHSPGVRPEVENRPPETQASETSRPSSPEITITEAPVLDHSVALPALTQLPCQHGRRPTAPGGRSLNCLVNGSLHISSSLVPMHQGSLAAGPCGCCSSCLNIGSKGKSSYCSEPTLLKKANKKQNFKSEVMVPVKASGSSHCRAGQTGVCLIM
T10 sequence (Q9UPE1 whole entry, the tested form may be a part): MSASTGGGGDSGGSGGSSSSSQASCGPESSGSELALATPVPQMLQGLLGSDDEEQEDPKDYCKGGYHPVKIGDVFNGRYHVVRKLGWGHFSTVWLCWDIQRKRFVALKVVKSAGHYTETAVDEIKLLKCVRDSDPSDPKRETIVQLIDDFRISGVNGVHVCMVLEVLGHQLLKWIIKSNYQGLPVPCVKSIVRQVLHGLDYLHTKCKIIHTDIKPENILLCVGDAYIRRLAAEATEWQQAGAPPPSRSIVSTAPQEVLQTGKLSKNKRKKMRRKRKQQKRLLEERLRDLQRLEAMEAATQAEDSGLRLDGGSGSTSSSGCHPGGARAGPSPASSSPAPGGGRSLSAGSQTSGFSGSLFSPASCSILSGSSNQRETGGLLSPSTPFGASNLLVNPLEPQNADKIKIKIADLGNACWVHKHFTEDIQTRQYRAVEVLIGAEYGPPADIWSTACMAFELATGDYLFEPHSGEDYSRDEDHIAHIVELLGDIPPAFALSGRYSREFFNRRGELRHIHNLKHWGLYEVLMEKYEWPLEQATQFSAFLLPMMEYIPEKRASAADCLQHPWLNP
T6 sequence (Q00536 whole entry, the tested form may be a part): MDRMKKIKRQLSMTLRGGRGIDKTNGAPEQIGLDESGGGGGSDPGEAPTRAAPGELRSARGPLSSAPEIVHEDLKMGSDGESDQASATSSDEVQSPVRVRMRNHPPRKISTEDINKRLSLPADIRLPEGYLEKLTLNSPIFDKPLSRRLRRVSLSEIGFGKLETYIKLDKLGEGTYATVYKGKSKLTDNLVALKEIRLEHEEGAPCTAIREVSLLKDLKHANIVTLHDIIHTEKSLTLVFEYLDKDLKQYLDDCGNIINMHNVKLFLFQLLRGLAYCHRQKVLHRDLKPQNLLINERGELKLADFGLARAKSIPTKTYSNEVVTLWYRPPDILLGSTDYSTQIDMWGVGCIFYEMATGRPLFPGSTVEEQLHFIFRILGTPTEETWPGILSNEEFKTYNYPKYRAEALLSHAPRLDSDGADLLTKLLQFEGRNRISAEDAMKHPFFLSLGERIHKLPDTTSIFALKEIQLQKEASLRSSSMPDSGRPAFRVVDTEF
T7 sequence (P15056 whole entry, the tested form may be a part): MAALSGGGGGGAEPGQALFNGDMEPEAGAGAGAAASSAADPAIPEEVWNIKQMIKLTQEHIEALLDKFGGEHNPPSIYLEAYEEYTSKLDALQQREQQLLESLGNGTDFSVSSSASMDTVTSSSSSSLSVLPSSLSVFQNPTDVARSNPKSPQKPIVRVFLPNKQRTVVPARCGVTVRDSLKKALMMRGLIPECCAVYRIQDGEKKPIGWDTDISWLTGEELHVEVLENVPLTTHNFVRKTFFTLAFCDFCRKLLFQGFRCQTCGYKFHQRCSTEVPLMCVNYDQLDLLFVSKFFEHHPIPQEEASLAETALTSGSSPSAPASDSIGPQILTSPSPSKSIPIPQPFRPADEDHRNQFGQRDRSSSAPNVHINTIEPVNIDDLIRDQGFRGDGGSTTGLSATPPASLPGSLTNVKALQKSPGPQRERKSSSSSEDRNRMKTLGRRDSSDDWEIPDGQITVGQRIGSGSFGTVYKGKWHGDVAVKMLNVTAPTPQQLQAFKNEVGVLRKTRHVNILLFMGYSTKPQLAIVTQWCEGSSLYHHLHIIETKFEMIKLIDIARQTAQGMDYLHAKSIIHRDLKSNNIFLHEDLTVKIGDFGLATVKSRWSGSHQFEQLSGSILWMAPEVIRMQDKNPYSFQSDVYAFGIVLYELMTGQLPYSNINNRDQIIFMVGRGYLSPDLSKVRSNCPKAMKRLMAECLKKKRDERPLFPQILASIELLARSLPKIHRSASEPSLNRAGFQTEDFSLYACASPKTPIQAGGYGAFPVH

Row | SMILES | dTm [1] [K] | dTm [2] [K] | dTm [3] [K] | dTm [4] [K] | dTm [5] [K] | dTm [6] [K] | dTm [7, 11] [K] | dTm [8] [K] | dTm [9] [K] | dTm [10] [K] | dTm [7] [K]
1 | Cc1ccc(C(=O)Nc2ccc(CN3CCN(C)CC3)c(C(F)(F)F)c2)cc1C#Cc1c[nH]c2ncnc(N3CCOCC3)c12 [Compound 1] | 3.69 | 0.13 | -1.40 | 2.40 | 4.74 | 1.60 | 35.22 | 7.64 | 0.00 |  | 
2 | O=C(Nc1ccc(F)cc1)C1(C(=O)Nc2cccc(-c3c[nH]c4ncnc(N5CCOCC5)c34)c2)CC1 [Compound 2] | 1.95 | -0.56 | 4.73 | 1.77 | 9.94 | 5.80 | 9.50 | 4.96 | 6.94 | 6.73 | 
3 | O=C(Nc1cccc(-c2c[nH]c3ncnc(N4CCOCC4)c23)c1)c1cccn(-c2ccc(F)cc2)c1=O [Compound 4] | 4.19 | -0.15 | 2.17 | 1.22 | 12.71 | 7.66 | 8.03 | 6.40 | 3.00 | 5.16 | 
4 | Cc1cc(NC(=O)C2(C(=O)Nc3ccc(F)cc3)CC2)cc(-c2c[nH]c3ncnc(N4CCOCC4)c23)c1 [Compound 6] | 1.36 | -2.13 | -0.88 | 3.07 | 7.75 | 1.12 | 12.36 | 3.77 | 5.72 | 4.54 | 
5 | O=C(Nc1cccc(-c2c[nH]c3ncnc(N4CCOCC4)c23)c1)C1(C(=O)Nc2cccc3c2CCC3)CC1 [Compound 11] | 1.05 | -2.54 | 0.32 | 2.69 | 6.18 | 3.50 | 10.02 | 5.91 | 6.04 | 3.94 | 
6 | O=C(Nc1ccccc1)C1(C(=O)Nc2cccc(-c3c[nH]c4ncnc(N5CCOCC5)c34)c2)CC1 [Compound 12] | 2.09 | 1.99 | 4.34 | 1.89 | 7.89 | 5.02 | 6.85 | 5.86 | 7.12 | 4.78 | 
7 | O=C(Nc1ccc(Cl)cc1)C1(C(=O)Nc2cccc(-c3c[nH]c4ncnc(N5CCOCC5)c34)c2)CC1 [Compound 13] | 2.32 | 0.45 | 8.77 | 3.50 | 11.74 | 9.13 | 10.34 | 6.61 | 6.50 | 8.47 | 
8 | Cc1ccc(NC(=O)C2(C(=O)Nc3cccc(-c4c[nH]c5ncnc(N6CCOCC6)c45)c3)CC2)cc1 [Compound 14] | 1.16 | 0.0157 | 3.30 | 1.22 | 9.07 | 6.61 | 8.39 | 5.95 | 4.57 | 5.15 | 
9 | CCc1ccc(NC(=O)C2(C(=O)Nc3cccc(-c4c[nH]c5ncnc(N6CCOCC6)c45)c3)CC2)cc1 [Compound 15] | 1.18 | 0.0657 | 3.55 | 1.75 | 8.81 | 9.05 | 9.26 | 6.81 | 6.77 | 3.89 | 
10 | CCNc1nc(Nc2cc(F)c(C(=O)N3CCOCC3)cc2OC)ncc1C(F)(F)F [GNE-7915] | 0.28 |  | -0.0472 | 0.32 | 0.51 | 0.61 | 1.48 | 1.26 | 6.53 |  | 
11 | Cc1ccc(C(=O)Nc2ccc(CN3CCN(C)CC3)c(C(F)(F)F)c2)cc1C#Cc1cnc2[nH]ncc2c1 [GZD-824, reference compound] | 4.29 |  | -2.15 | 0.14 | 6.08 | 3.06 |  | 1.62 | 4.08 |  | 38.00
12 | C[C@@H]1CN(c2cc(-c3n[nH]c4ccc(OC5(C)CC5)cc34)ncn2)C[C@H](C)O1 [MLi2] | 0.27 |  | 0.53 | 3.50 | 0.32 | -0.14 | 0.50 | 0.87 | 5.63 |  | 
13 | Cn1cc(-c2c[nH]c3ncnc(N4CCOCC4)c23)cc1C#N [PFE-360] | -0.25 |  | 3.25 | -0.81 | 0.70 | 0.35 | 2.10 | 1.90 | 0.43 |  | 
14 | Cc1ccc(C(=O)Nc2ccc(CN3CCN(C)CC3)c(C(F)(F)F)c2)cc1C#Cc1cnc2cccnn12 [Ponatinib, reference compound] |  |  |  | 1.16 |  |  | 36.88 |  |  |  | 
15 | CNC(=O)c1cc(Oc2ccc(NC(=O)Nc3cc(C(C)(C)C)nn3-c3ccc4ncccc4c3)c(F)c2)ccn1 [Rebastinib, reference compound] | 1.13 | -1.54 | 0.55 |  | 13.29 | 13.62 |  | 0.53 | 8.07 | 9.62 | 
16 | CN[C@@H]1C[C@H]2O[C@@](C)([C@@H]1OC)n1c3ccccc3c3c4c(c5c6ccccc6n2c5c31)C(=O)NC4 [Staurosporine] | 9.01 |  |  |  | 8.03 |  |  |  |  | 4.52 | 
